Test results published in publication PMC5152921, “Evolutionary and Functional Diversification of the Vitamin D Receptor-Lithocholic Acid Partnership” (PLoS ONE, 2016).

Legend:
Experiment in all cases: Competitive ligand binding assay ([3H]-1,25D3 displacement)
Details in all cases: lysate with VDR and human RXRWT; 4 nM [3H]-1,25D3; 18 hours at 4°C; Cheng-Prusoff; mean ± SEM
Skate VDR = target: T1, Skate VDR (Leucoraja erinacea, UniProt A0A088GDQ7)
T1 sequence (A0A088GDQ7 1-434): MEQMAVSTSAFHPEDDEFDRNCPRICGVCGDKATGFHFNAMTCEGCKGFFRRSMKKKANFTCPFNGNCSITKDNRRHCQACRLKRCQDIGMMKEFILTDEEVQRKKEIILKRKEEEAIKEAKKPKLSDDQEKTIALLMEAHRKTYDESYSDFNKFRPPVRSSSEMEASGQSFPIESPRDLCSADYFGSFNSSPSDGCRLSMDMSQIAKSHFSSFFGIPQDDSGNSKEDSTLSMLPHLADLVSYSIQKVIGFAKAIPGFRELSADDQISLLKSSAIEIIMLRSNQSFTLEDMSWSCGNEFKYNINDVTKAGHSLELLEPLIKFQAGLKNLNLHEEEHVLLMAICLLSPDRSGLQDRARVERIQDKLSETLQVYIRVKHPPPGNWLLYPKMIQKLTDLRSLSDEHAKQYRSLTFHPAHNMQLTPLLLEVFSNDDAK
T1 sequence (P19793 1-462 partner): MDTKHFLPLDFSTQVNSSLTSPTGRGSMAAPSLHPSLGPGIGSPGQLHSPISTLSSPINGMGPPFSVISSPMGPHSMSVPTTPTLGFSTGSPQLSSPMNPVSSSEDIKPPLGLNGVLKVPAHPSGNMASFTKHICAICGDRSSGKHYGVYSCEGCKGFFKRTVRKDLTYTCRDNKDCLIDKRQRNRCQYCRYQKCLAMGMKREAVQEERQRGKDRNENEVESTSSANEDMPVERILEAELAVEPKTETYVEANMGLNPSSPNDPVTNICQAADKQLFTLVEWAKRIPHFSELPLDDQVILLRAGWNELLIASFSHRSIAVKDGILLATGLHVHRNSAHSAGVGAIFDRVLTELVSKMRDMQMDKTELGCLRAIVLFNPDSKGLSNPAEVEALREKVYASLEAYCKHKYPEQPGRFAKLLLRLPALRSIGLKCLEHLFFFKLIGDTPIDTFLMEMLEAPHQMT
Procedure: (§1) Recombinant VDR and human RXRWT lysates were prepared from transfected COS7 cells (American Type Culture Collection #CRL-1651) as described in detail previously. Lysates were diluted 10-fold in ice-cold assay buffer (10 mM Tris HCl, 150 mM KCl, 1 mM EDTA, 0.3 mM ZnCl2, 5 mM DTT, and 1x protease inhibitor cocktail (100 μM AEBSF, 80 nM aprotinin, 5 μM bestatin, 1.5 μM E-64 (for cysteine proteases), 2 μM leupeptin, 1 μM pepstatin A), pH 7.5). […] Reactions were shaken to mix and incubated for 18 hours at 4°C. Bound and free ligand were separated with the addition of 80 μL of ice-cold separation buffer (2.5% (w/v) activated charcoal, 0.5% (w/v) dextran, 100 mM Na2HPO4, 39 mM NaH2PO4, 150 mM NaCl, 15 mM NaN3, 10% gelatin, pH 7.0), and incubated at 4°C for 15 minutes with shaking every 5 minutes. Reactions were centrifuged at 5,000 x g for 5 minutes at 4°C, and 200 μL of the supernatant containing the VDR-bound ligands was removed for scintillation counting.
(§2) Total binding was determined using lysate from cells transfected with VDR, and nonspecific binding was determined using lysate from cells transfected with the empty pSG5 vector. Specific binding was determined by subtracting non-specific binding counts from the total binding counts.

Bichir VDR = target: T2, Bichir VDR (Polypterus senegalus, UniProt A0A088GJ14)
T2 sequence (A0A088GJ14 1-421): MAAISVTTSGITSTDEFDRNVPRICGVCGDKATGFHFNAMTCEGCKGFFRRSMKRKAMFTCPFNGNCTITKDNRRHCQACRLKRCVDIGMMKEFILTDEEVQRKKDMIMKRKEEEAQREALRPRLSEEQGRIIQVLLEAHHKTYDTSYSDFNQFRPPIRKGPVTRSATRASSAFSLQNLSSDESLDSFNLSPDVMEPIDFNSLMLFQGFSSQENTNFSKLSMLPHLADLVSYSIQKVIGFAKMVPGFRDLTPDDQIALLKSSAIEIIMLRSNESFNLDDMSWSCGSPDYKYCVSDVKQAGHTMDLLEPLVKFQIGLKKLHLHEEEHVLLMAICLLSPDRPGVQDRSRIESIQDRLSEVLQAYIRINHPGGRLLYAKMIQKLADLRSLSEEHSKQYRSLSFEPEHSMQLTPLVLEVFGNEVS
T2 sequence (P19793 1-462 partner): T1 sequence (P19793 1-462 partner)
Procedure: as §1, §2

Lamprey VDR = target: T3, Lamprey VDR (Petromyzon marinus, UniProt Q7ZZY9)
T3 sequence (Q7ZZY9 1-406): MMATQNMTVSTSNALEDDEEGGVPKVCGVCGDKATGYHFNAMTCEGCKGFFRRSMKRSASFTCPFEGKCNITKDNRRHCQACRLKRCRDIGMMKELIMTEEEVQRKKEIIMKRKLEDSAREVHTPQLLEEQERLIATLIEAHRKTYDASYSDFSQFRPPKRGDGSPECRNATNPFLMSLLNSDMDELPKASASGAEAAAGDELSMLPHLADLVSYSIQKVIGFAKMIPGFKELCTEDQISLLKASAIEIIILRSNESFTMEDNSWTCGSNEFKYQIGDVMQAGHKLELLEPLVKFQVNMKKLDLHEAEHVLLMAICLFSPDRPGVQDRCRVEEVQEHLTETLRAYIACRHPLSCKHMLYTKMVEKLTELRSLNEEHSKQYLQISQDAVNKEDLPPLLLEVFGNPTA
T3 sequence (P19793 1-462 partner): T1 sequence (P19793 1-462 partner)
Procedure: as §1, §2

Zebrafish VDRα = target: T4, Zebrafish VDRα (Danio rerio, UniProt Q9PTN2)
T4 construct: 89.7 ng/well of full-length pSG5-VDR was co-transfected; expressed in transfected cells; host or cells: COS7
T4 sequence (Q9PTN2 1-453): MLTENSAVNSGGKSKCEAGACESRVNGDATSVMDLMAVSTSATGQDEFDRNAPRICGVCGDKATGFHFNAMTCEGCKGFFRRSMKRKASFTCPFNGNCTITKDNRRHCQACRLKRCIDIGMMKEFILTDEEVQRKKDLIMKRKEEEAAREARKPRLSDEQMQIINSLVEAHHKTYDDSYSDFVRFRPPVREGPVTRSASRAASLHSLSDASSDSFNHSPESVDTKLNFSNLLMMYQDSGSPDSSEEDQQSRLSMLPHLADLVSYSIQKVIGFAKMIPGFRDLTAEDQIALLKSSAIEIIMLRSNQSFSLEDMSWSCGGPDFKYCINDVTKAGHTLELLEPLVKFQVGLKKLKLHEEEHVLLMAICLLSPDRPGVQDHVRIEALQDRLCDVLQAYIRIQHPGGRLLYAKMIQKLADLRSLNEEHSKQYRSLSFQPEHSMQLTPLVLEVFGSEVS
T4 sequence (P19793 1-462 partner): T1 sequence (P19793 1-462 partner)
Procedure: as §1, §2

Medaka VDRα = Medaka VDRα (Oryzias latipes, UniProt B2CCA0)
Procedure: as §1, §2

Chain of Medaka VDRα (B2CCA0 entry or part of it, one chain of several): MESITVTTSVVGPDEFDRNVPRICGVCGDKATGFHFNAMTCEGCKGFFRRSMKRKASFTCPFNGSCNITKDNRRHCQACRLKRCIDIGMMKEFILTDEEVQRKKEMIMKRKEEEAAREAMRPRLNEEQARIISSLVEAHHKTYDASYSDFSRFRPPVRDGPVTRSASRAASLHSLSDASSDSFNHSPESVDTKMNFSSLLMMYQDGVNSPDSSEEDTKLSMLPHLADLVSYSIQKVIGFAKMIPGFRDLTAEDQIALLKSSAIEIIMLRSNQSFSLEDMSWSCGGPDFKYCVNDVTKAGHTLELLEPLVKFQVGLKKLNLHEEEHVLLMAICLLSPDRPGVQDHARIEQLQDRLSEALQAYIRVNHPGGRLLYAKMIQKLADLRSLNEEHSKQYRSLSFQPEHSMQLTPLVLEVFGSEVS

How did the Ki (Skate VDR) turn out when `C[C@H](CCC(=O)O)[C@H]1CC[C@H]2[C@@H]3CC[C@@H]4C[C@H](O)CC[C@]4(C)[C@H]3CC[C@]12C` [LCA, 5β-cholanic acid-3α-ol] was run?
The Ki was 6.7 ± 2.1 µM.

And the Ki (Bichir VDR)?
The Ki was 4.2 ± 0.4 µM.

And the Ki (Lamprey VDR)?
The Ki was 8.7 µM.

What about the Ki (Zebrafish VDRα) of the same compound?
Its Ki is 5.5 ± 1.9 µM.

And the Ki (Medaka VDRα)?
Its Ki is 6.5 ± 1.9 µM.
